In brackets after ≈: the same amount, converted by molar mass.
How the values were obtained:
[1] = tested on: P. falciparum (NF54 strain, clone A149); test: In vitro 3H-hypoxanthine incorporation test with P. falciparum NF 54; assay type: cell-based, Plasmodium falciparum; settings: NF 54, clone A149; six repeats; max. concentration 50 or 5 μg/ml
Experimental: Continuous in vitro cultures of asexual erythrocytic stages of P. falciparum (strain NF 54/64, clone A1A9) were maintained following essentially the method of Trager and Jensen (Science, 193, 673-675, 1976) at 37° C. under an atmosphere of 5% CO2, 5% O2, and 90% N2. The host cells were human erythrocytes (A or O Rh+). The culture medium was RPMI 1640 (Gibco), containing HEPES (BDH; 4.57 gL^−1), glucose (Sigma; 1.54 gL^−1), 5% NaHCO3 (Merck; 34.78 mlL^−1), and gentamycin (Merck; 8.70 mlL^−1) supplemented with 10% human plasma (A Rh+). Parasites were subinoculated every 3-4 days with initial conditions of 1% parasitemia and 1% hematocrit.
(§1) In vitro testing with P. falciparum was as follows. Each compound was dissolved in DMSO at a concentration of 20 mg ml^−1. These solutions were further diluted with physiological saline to obtain a stock solution of 500 μg ml^−1. Each test substance was applied in a series of seven, 4-fold dilutions (maximum concentrations 50 or 5 μg ml^−1). Each compound was tested in 6-fold repeats. Chloroquine was tested similarly, as a positive control.
(§2) The test protocol was performed in vitro, based upon the method of Desjardins, et al. (Antimicrobial Agents Chemother., 16, 710-715, 1979). The parasites (200 μl of a suspension with initial parasitemia of 0.5% and hematocrit of 1.5%) were incubated for 24 h in microtitre plates (Falcon MicroTest III) in hypoxanthine-free medium in the presence of 25 μl of test solution. The plates contained a negative control (6 wells with non-parasitized RBC's, no drug) and a positive control (6 wells with parasitized RBC's no drug). Thereafter, 25 μl of ^3H-hypoxanthine solution (Amersham) was added (0.5 μCi well ^−1), and the parasites were incubated for a further period of 18 h. Each well was harvested with a Cell Harvester (Nunc). The filter papers were dried for 2 h at 52° C., and their radioactivity was measured by liquid scintillation counting in Optiscint HiSafe (LKB Pharmacia).
(§3) The mean results, obtained as counts per min (cpm), were expressed as percentages of incorporation or growth inhibition. The sigmoid dose-response curve was then linearized by probit analysis with the aid of software provided by IWONL (Gent), adapted by G. Timperman and used to derive the IC50 values.

[2] = tested on: P. berghei (Anka); test: In vitro 3H-hypoxanthine incorporation test with P. berghei (Anka); assay type: cell-based, Plasmodium berghei; settings: Anka strain
Experimental: as §1, §2, §3
For experiments with P. berghei (Anka strain), the parasites were maintained, and the in vitro tests performed essentially the same as above, except for the following modification. In the case of tests using P. berghei, the parasites were incubated in the same conditions as for P. falciparum (above) except that the incubations were started immediately in the presence of the ^3H-hypoxanthine and for 24 hour total duration (i.e., no delay in the addition of the ^3H-hypoxanthine). As before, the incorporated radioactivity was used as a-measure for parasite growth.

[3] = tested on: P. falciparum (K1 strain); test: In vitro 3H-hypoxanthine incorporation test with chloroquine-resistant P. falciparum K1; assay type: cell-based, Plasmodium falciparum
Experimental: Selected compounds were also tested against drug-resistant parasites. The method was the same as above except for the following modifications. The parasite used was the chloroquine-resistant strain, K1, maintained essentially according to Desjardins, et al. (supra, 1979). The culture medium was RPMI-1640 containing TES (Sigma; 7.64 gL^−1), glucose (BDH; 1.67 gL^−1), NaHCO3 (BDH; 1.94 gL^−1), and gentamycin (Nicholas; 30 mgL^−1) supplemented with 10% human serum (A RH+). Parasites were subinoculated every 3-4 days with initial conditions of 1% parasitemia and 2.5% hematocrit. For the testing, small aliquots of test material were dissolved in 20 μl EtOH and RPMI 1640 to give solutions of 1 or 10 mg ml^−1. Each was applied in a series of twelve, […] dilutions (final […] ranging from 50 to 1.19×10^−3 μg ml^−1). Chloroquine diphosphate (Sigma) was used in the same experiments as a reference and also in twelve, 4-fold dilutions (final concentrations 2×10^−5-1.19×10^−12M). Each compound was tested in duplicate.
Testing was performed in vitro based upon the method of Desjardins, et al (supra, 1979), as modified by O'Neill, et al. (Planta Med., 51, 394-399, 1985) and Ekong, et al. (Biochem. Pharmacol., 40, 297-301, 1990). The parasites (50 μl initial parasitemia of 1%, hematocrit of 5%) were incubated for 24 h in microtitre plates (Nunc) in normal (not hypoxanthine-depleted) medium in the presence of 50 μl of test solution. Controls were set up in each test by preparing 12-24 wells with non-parasitized RBC's and no test solution and 12-24 wells with parasitized RBC's and no test compound. Thereafter, 5 μl all of ^3H-hypoxanthine (Amersham) were added (0.2 μCi well ^−1), and the parasites incubated for a further period of 18 h. Each well was harvested with a Cell Harvester (Skatron). Glass fibre filters were dried briefly. Radioactivity was measured by liquid scintillation counting in Ecoscint (National Diagnostics).
The results obtained as cpm were expressed as percentages of incorporation of growth inhibition. The dose-related part of the sigmoidal curves obtained were linearized by regression analysis with the aid of software developed by S. Grant (I.SHTM) and used to calculate the IC50 values.

[4] = tested on: Plasmodium berghei (Anka strain); test: In vivo antimalarial test in OF1 mice inoculated with P. berghei; settings: 50 mg/kg oral on days 0, 1, 2, 3; OF1 mice; N=6
Experimental: Outbred, female, six-week-old OF1 mice (six mice per group treated and nontreated [control]) were inoculated intraperitoneally on day 0 with 10^6 P. berghei (Anka strain) blood forms. Two hours later, they were administered orally 50 mg/kg of dioncopeltine A or dioncophylline B. A second, third, and fourth treatment (50 mg/kg each) was given after 24, 48 and 72 h, respectively (days 1, 2, and 3). […] The parasitemia (%) in the control (not drug-treated) group was 3.50 (range 3.02-3.97; N=6). In the dioncopeltine A treated group, the parasitemia was 0.03 (range 0.01-0.06; N=6); in the dioncophylline B treated group, the parasitemia was […] (range 0.66-3.07; N=6).
The in vivo antimalarial testing was performed as described above, except that more doses and different treatment schedules were employed, as described in Tables 3 and 4.

Row | Molecule | IC50 P. falciparum NF54 strain [1] [µg/mL] | IC50 P. berghei, Anka [2] [µg/mL] | IC50 P. falciparum, K1 strain [3] [µg/mL] | Parasitemia (%) from blood smears at day 4 [4] [%]
1 | 6-O-demethyl-8-O-methyl-7-epi-ancistrobrevine C | 10.326 |  |  | 
2 | COc1cc2c(c(OC)c1-c1ccc(OC)c3c(OC)cc(C)cc13)[C@@H](C)N(C)[C@@H](C)C2 [Ancistrobrevine A] | 19.336 (≈ 44.4 µM) |  |  | 
3 | COc1cc(O)c(-c2c(C)cc(OC)c3c(OC)cccc23)c2c1[C@H](C)N[C@@H](C)C2 [Hamatine] | 3.338 (≈ 8.19 µM) | 5.565 (≈ 13.7 µM) |  | 
4 | COc1cc(C)cc2c(-c3c(O)cc(O)c4c3C[C@@H](C)N[C@@H]4C)cc(-c3cc(-c4c(O)cc(O)c5c4C[C@@H](C)N[C@@H]5C)c4cc(C)cc(OC)c4c3O)c(O)c12 [Michellamine A] | 46.957 (≈ 62 µM) | >50 |  | 
5 | COc1cc(C)cc2ccc(-c3ccc4c(c3O)[C@@H](C)N[C@H](C)C4)c(O)c12 [Dioncophylline B] | 0.224 (≈ 0.616 µM) | 0.228 (≈ 0.627 µM) | 0.063 (≈ 0.173 µM) | 1.86
6 | COc1c(C)nc(C)c2c(OC)c(-c3c(C)cc(OC)c4c(OC)cccc34)ccc12 [(±)-dioncophyllacine A] | 17.571 (≈ 42.1 µM) |  |  | 
7 | Ancistrobrevine D | 12.222 | 6.069 | 10.440 | 
8 | Michellamine B | 20.185 | >50 |  | 
9 | N-formyl-O,O-dimethyl-dioncophylline C | >50 |  |  | 
10 | COc1cccc2c(-c3ccc4c(c3O)C(C)N(C)C(C)C4)c(C)cc(OC)c12 (single isomer, unassigned) [N-methyl-dioncophylline A (atropisomers)] | 17.411 (≈ 44.5 µM) |  |  | 
11 | COc1cccc2c(-c3ccc4c(c3O)C(C)N(C)C(C)C4)c(C)cc(OC)c12 (stereo not drawn) [N-methyl-dioncophylline A] | 13.637 (≈ 34.8 µM) | 9.207 (≈ 23.5 µM) | 5.749 (≈ 14.7 µM) | 

Reference: US6627641B1, “Antimalarial naphthylisoquinoline alkaloids and pharmaceutical compositions and medical uses thereof” (The United States of America as represented by the …, priority 1994, dated 2003)
